# Experimental data from ChEMBL document CHEMBL3351226, “Autumnalamide, a prenylated cyclic peptide from the cyanobacterium Phormidium autumnale, acts on SH-SY5Y cells at the mitochondrial level” (J Nat Prod, 2014).
# Activity calls are given as the source filed them. No cut-off for these calls is given here.
# Experiments:
# SH-SY5Y [1] = details: Homo sapiens, at 10 µM
# Description: Inhibition of SOC in human SH-SY5Y cells assessed as reduction in thapsigargin-induced Ca2+ influx incubated for 5 mins at 10 uM by FURA-2AM dye based fluorescence assay
# SH-SY5Y [2] = details: Homo sapiens, at 10 µM; remark: listed apart in the source
# Description: Induction of mitochondrial membrane potential loss in human SH-SY5Y cells at 10 uM incubated for 10 mins in presence of 0.2 uM CsA by TMRE dye based assay
# SH-SY5Y [3] = details: Homo sapiens, at 10 µM; remark: listed apart in the source
# Description: Inhibition of SOC in human SH-SY5Y cells assessed as reduction in thapsigargin-induced Ca2+ influx at 10 uM pre-incubated for 5 mins with 0.2 uM CsA followed by compound addition by FURA-2AM dye based fluorescence assay
# SH-SY5Y [4] = test: Induction of mitochondrial membrane potential loss in human SH-SY5Y cells at 10 uM incubated for 10 mins by TMRE dye based assay; assay type: functional
# SH-SY5Y [5] = details: Homo sapiens, at 10 µM; remark: listed apart in the source
# Description: Modulation of mitochondrial permeability transition pore opening in human SH-SY5Y cells assessed as reduction in calcein fluorescence at 10 uM in presence of 0.2 uM CsA by calcein-AM dye based confocal laser scanning microscopy
# SH-SY5Y [6] = test: Modulation of mitochondrial permeability transition pore opening in human SH-SY5Y cells assessed as reduction in calcein fluorescence at 10 uM by calcein-AM dye based confocal laser scanning microscopy; assay type: functional
# SH-SY5Y [7] = test: Effect on cytosolic Ca2+ level in human SH-SY5Y cells at 10 uM followed by 1 mM Ca2+ addition 5 mins after compound treatment by FURA-2AM dye based fluorescence assay; assay type: functional, cell-based
# SH-SY5Y [8] = test: Inhibition of SOC in human SH-SY5Y cells assessed as reduction in thapsigargin-induced Ca2+ influx incubated for 5 mins at 10 uM in presence of 30 uM SKF96365 by FURA-2AM dye based fluorescence assay; assay type: cell-based
# SH-SY5Y [9] = test: Effect on cytosolic Ca2+ level in human SH-SY5Y cells at 10 uM by FURA-2AM dye based fluorescence assay; assay type: functional, cell-based
# [10] = Cytotoxicity against human SH-SY5Y cells assessed as reduction in cell viability at 0.1 to 20 uM incubated for 1 hr by MTT assay; assay type: cell-based
# SH-SY5Y [11] = test: Inhibition of SOC in human SH-SY5Y cells assessed as reduction in thapsigargin-induced Ca2+ influx incubated for 5 mins by FURA-2AM dye based fluorescence assay; assay type: cell-based
# SH-SY5Y [12] = test: Inhibition of SOC in human SH-SY5Y cells assessed as reduction in thapsigargin-induced Ca2+ influx incubated for 5 mins at 10 uM in presence of 10 uM FCCP by FURA-2AM dye based fluorescence assay; assay type: cell-based
# [13] = molecular target: Sodium channel protein type 8 subunit alpha (Homo sapiens) (UniProt Q9UQD0); test: Effect on human NaV1.6 expressed in HEK293 cells assessed as effect on sodium current by whole cell patch clamp electrophysiology method; assay type: cell-based
# Chain of Sodium channel protein type 8 subunit alpha (Homo sapiens) (Q9UQD0 whole entry, looked up): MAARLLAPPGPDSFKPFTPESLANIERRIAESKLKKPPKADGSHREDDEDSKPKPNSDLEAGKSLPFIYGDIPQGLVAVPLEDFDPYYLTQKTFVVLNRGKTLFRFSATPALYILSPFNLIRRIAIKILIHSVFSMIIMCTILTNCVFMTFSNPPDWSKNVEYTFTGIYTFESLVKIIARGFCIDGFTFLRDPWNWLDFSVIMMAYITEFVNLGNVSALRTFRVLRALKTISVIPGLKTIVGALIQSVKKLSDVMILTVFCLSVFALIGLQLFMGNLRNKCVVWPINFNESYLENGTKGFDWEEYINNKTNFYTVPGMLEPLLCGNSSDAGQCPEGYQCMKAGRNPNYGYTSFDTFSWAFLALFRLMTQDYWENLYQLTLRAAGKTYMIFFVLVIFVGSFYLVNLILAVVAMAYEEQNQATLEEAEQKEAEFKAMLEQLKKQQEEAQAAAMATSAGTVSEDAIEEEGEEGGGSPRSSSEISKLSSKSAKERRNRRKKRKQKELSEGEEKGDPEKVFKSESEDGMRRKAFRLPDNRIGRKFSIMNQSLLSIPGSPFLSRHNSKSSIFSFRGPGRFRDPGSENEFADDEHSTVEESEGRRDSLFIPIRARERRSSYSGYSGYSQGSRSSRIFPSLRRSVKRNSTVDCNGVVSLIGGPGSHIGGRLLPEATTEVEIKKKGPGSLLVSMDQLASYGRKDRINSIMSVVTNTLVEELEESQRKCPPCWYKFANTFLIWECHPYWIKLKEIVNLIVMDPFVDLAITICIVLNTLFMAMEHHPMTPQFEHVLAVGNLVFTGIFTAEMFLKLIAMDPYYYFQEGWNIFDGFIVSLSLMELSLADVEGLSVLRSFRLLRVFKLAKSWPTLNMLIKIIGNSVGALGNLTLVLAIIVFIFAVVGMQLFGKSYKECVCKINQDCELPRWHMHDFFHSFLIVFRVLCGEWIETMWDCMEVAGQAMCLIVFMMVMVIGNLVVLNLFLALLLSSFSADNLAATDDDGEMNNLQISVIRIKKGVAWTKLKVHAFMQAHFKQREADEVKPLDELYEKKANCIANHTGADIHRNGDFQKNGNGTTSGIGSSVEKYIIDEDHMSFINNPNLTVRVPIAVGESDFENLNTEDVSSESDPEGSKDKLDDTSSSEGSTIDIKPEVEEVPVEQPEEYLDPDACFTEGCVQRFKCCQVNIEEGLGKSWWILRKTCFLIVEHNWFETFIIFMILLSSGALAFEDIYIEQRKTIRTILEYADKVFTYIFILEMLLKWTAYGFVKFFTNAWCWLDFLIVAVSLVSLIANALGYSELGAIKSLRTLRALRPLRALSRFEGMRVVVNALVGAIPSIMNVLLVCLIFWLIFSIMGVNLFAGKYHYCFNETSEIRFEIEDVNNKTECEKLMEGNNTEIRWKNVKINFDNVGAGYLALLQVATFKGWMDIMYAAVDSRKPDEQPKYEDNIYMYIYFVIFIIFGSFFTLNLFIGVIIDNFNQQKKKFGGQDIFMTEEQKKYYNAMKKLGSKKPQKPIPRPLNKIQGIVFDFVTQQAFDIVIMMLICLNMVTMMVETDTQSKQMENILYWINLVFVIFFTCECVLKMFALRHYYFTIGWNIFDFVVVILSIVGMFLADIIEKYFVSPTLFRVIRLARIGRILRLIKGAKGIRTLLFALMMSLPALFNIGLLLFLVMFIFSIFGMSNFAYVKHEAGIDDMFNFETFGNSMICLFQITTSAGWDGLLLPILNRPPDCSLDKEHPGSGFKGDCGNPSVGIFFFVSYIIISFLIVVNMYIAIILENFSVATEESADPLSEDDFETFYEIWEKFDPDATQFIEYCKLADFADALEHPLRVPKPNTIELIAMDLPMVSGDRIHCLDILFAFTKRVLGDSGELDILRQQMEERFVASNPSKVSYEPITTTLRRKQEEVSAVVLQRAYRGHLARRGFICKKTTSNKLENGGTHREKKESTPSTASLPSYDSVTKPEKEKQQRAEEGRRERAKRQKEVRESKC
# [14] = Cytotoxicity against human SH-SY5Y cells assessed as reduction in cell viability at 25 uM incubated for 1 hr by MTT assay; assay type: cell-based
# SH-SY5Y [15] = test: Effect on VGSC in human SH-SY5Y cells assessed as effect on total sodium current at 0.1 nM to 10 uM by whole cell patch clamp electrophysiology method; assay type: cell-based
# SH-SY5Y [16] = test: Inhibition of SOC in human SH-SY5Y cells assessed as reduction in thapsigargin-induced Ca2+ influx incubated for 5 mins at 5 uM by FURA-2AM dye based fluorescence assay; assay type: cell-based
# SH-SY5Y [17] = test: Inhibition of SOC in human SH-SY5Y cells assessed as reduction in thapsigargin-induced Ca2+ influx incubated for 5 mins at 1 uM by FURA-2AM dye based fluorescence assay; assay type: cell-based
# SH-SY5Y [18] = test: Inhibition of SOC in human SH-SY5Y cells assessed as reduction in thapsigargin-induced Ca2+ influx incubated for 5 mins at 30 uM by FURA-2AM dye based fluorescence assay; assay type: cell-based
Structure (SMILES),inhibition (SH-SY5Y [1]),inhibition (SH-SY5Y [2]),inhibition (SH-SY5Y [3]),inhibition at 10 µM (SH-SY5Y [4]) [%],inhibition (SH-SY5Y [5]),inhibition at 10 µM (SH-SY5Y [6]) [%],Activity (SH-SY5Y [7]),inhibition (SH-SY5Y [8]),Activity (SH-SY5Y [9]),Activity [10],inhibition (SH-SY5Y [11]),inhibition (SH-SY5Y [12]) [%],Activity [13],Activity [14] [%],Activity (SH-SY5Y [15]),inhibition (SH-SY5Y [16]) [%],inhibition (SH-SY5Y [17]),inhibition (SH-SY5Y [18])
N#CC(C#N)=NNc1ccc(OC(F)(F)F)cc1,51%,Active,Active,68,inactive,20,–,–,–,–,–,–,–,–,–,–,–,–
CC(C)=CCNC(=N)NCCC[C@H]1NC(=O)[C@H](Cc2ccccc2)NC(=O)[C@H](CC(=O)O)NC(=O)[C@H](CC(C)C)NC(=O)CNC(=O)[C@H]2CCCN2C(=O)[C@H](Cc2ccccc2)NC1=O,Active,inactive,inactive,36,inactive,30,inactive,Active,inactive,Non-toxic,Dose-dependent effect,72,inactive,42,inactive,33,inactive,–
COc1ccc(CCCOC(Cn2ccnc2)c2ccc(OC)cc2)cc1 (centres undefined),–,–,–,–,–,–,–,–,–,–,–,–,–,–,–,–,–,Active
